Experimental data taken from patent publication US12622915B2, “Methods of treating PDE IV-mediated diseases or conditions” (Vanda Pharmaceuticals Inc., priority 2020, dated 2026).

Test system: IMQ induced psoriasis
Procedure: Test Item Details • 1. Dexamethasone Cat. or Batch no.: BCBM4557V (sigma) • Vehicle for dexamethasone (Veh.1): acetone:ethanol (1:1) • Dose: 0.1 mg/ear & 0.25 mg in back skin • Dose volume: 20 μL/ear & 50 μL on back skin • 2. Crisaborole: PZ0037 (Sigma) • Vehicle (Veh.1): acetone:ethanol (1:1) • Dose: 0.1 mg/ear & 0.25 mg in back skin • Dose volume: 20 μL/ear, 50 μL on back skin • 3. Compound of Formula (I) • Vehicle (Veh.1): acetone:ethanol (1:1) • Dose: 0.1 mg/ear & 0.25 mg in back skin • Dose volume: 20 μL/ear, 50 μL on back skin Dexamethasone and Test Item Preparation and Application: • Strength=5 mg/ml
Application=100 μg/20 pit per each ear+250 μg/50 μL on the back G2 to G4 receive Dexamethasone, Crisaborole or test item: Daily topical treatment (D0-D6): 0.1 mg in 20 μl per ear x both the ears+0.25 mg in 50 μl (on the back) 6-8 hrs after IMQ application.
Disease Induction: Application of 5% IMQ cream 40 mg (back) and 5 mg (per ear—Inner surface) daily from day 0-6.
Treatment: 0.5% Dexamethasone solution: 0.25 mg (back) and 0.1 mg (per ear) 8 hrs post IMQ. • Day −2—Depilation on back region • Day 0—Observations (Body weight; ear thickness using digital microcaliper) • Day 2—Observations (Body weight; ear thickness using digital microcaliper) • Day 4—Observations (Body weight; ear thickness using digital microcaliper) • Day 6—Observations (Body weight; ear thickness using digital microcaliper); Blood collection (PK) and Termination {2 hrs after last dose) • Ear collection: PK, Cytokine, MPO, Thickness • Back skin collection, scoring and thickness measurement • Histopathology (optional)
The dorsal posterior area (2 cm×2 cm) of animals is depilated using a hair trimmer. 5% Imiquimod cream: 50 mg/animal (40 mg on the shaved back+5 mg each on the inner part of right and left ear) QD is applied on days 0 to 5 (Groups 1-4).
The body weight is recorded individually for all animals at receipt, day of randomization, prior to treatment, and once in two days thereafter. The animals are observed for mortality at regular intervals.
2 hrs post compound treatment on day 6, all the animals are euthanized, and ear tissues are collected. The right ear is flash frozen in liquid nitrogen and stored at −80° C. until homogenization for MPO and cytokine estimation.
The half of the left ear is used for drug concentration measurement. The other half of the left ear tissue is used for histopathology. The back skin is collected for visual assessment (scoring) and histopathology.
MPO analysis: Snap frozen ear tissue samples are homogenized in 1× assay buffer provided in the kit. The homogenates are centrifuged at 8000 g for 10 minutes in a refrigerated centrifuge. The supernatants are discarded, and the pellet is resuspended in solubilisation buffer (1× assay buffer containing 0.5% HTABr). The samples are homogenized and subjected to three rounds of freeze thaw followed by brief sonication for 10s. The samples are centrifuged at 12,000 g for 10 minutes in a refrigerated centrifuge and the resulting supernatants are analysed for MPO levels based on a fluorometric detection kit. The Kit utilizes a non-fluorescent detection reagent, which is oxidized in the presence of hydrogen peroxide and MPO to produce its fluorescent analogue. (Enzo Life Sciences; ADI-907-029).
Histopathology: At study termination, posterior dorsal skin and ear skin samples are collected. Skin samples are processed using routine histopathological methods and 4-5 μm paraffin sections are prepared. Tissue sections (3 serial sections/animal) are stained with Hematoxylin and eosin (H&E) to evaluate acanthosis, hyper/parakeratosis and inflammatory cellular infiltration in dermis. Severity of lesions are assessed semi quantitatively on a scale of 0-4 by two independent pathologists (0—normal, 1—mild degree, 2—moderate degree, 3—severe degree and 4—extensive or multiple locations) for each parameter in a blinded manner.

[1] = topical 0.5%, ear skin, vs IMQ control
[2] = topical 0.5%, maximum score 16, vs IMQ control

CNc1nc(Nc2ccccc2)nc(OCC(F)(F)C(F)F)n1 [compound of Formula (I), N^2-methyl-N^4-phenyl-6-(2,2,3,3-tetrafluoropropoxy)-1,3,5-triazine-2,4-diamine]
MPO activity in ear tissue homogenates (day 6, topical 0.5%, vs IMQ control): do not show significant inhibition | Back skin thickness (day 6 at termination, topical 0.5%, vs IMQ control): do not show significant reduction | Body weight / body weight loss (mouse, in vivo): significantly less | Cumulative clinical scores (erythema, skin thickness, scales) (topical 0.5%, back skin, maximum score 12, vs IMQ control): does not show any significant reduction | Extent of acanthosis, back skin (histopathology) (topical 0.5%, back skin, vs IMQ control): reduction | Ear thickness (topical 0.5%, daily, vs IMQ control): significant reduction in ear thickness on day 6 | Cellular infiltration, ear (histopathology) [1]: significant reduction | Extent of acanthosis, ear (histopathology) [1]: significant reduction | Cumulative HP score of back skin [2]: significant reduction | Overall cumulative HP scores of ear skin [2]: significant reduction | Spleen weight or normalized spleen weight (topical 0.5%, vs IMQ control): do not show significant reduction | Cytokine levels in ear tissue homogenates (topical treatment, vs IMQ control): significant reduction in few of the proinflammatory cytokines
